Assay results as given in US9468670B2, “Melatonin-based treatment and diagnosis of bile duct disease” (Texas A&M University System, priority 2011, dated 2016).

Assays:
[1] = tested on: large mouse cholangiocyte lines; assay: cAMP levels (RIA) in large mouse cholangiocyte lines; type: cell-based; conditions: preincubation with antagonist (10 mM), melatonin 10^−11 M
Excerpt: (§1) The expression of MT1 and MT2 receptors in immortalized large cholangiocytes was first evaluated by immunofluorescence (Francis et al., 2008). Images were visualized using an Olympus IX-71 confocal microscope. For all immunoreactions, negative controls (with normal serum from the same species substituted for the primary antibody) were included. It was next evaluated by commercially available radioimmunoassay (RIA) kits ([…] et al., 1998; Kato et al., 1992; […] et al., 1999; […] et al., 2004) for cAMP levels ([…] et al., 1998; Kato et al., 1992; […] Shiu et al., 2010). […] […] et al., 1992; Ramirez-Rodriguez et al., 2009; […], 1999). […] Shiu et al., 2010) before evaluating by immunoblots (Francis et al., 2008) the expression of PCNA and the phosphorylation of PKA and EKR1/2.

[2] = tested on: MT2 vs. the MT1 subtype; conditions: Shiu et al., 2010; cited from earlier work
[3] = tested on: large cholangiocyte lines; assay: PCNA expression and PKA, ERK1/2 phosphorylation (immunoblots) in immortalized large cholangiocytes; type: cell-based, mouse; conditions: preincubation with antagonist (10 mM), melatonin 10^−11 M, 48 hours
Excerpt: as §1

[4] = rat, in vivo, 1 mg/kg/day
Method: (§2) In separate experiments, normal rats treated with Vivo-Morpholino sequences of AANAT (5′-[…] (SEQ ID NO:1), to reduce the biliary expression of AANAT) or Morpholino mismatched (5′-[…] (SEQ ID NO:2)) (Gene Tools LCC) (1 mg/Kg BW/day) for 1 week via an implanted portal vein catheter. Serum, liver tissue, cholangiocytes, kidney, spleen, small intestine, stomach and heart were collected. Since our goal was to knock-down AANAT expression in the liver without inhibiting AANAT expression in other organs, we used a lower dose (1 mg/Kg/day) of Vivo-Morpholino than that described in the original study (3.0 mg/kg/day (Arora et al., 2002). This approach minimizes the amount of Vivo-Morpholino that circulates outside of the liver after slow infusion into the portal vein. See below for the surgical procedure for the implantation of the portal vein catheter by which AANAT Vivo-Morpholino or Morpholino mismatched was administered.
(§3) Biliary proliferation was determined by measurement of the percentage of PCNA-positive cholangiocytes by immunohistochemistry, and intrahepatic bile duct mass (IBDM) by immunohistochemistry for CK-19 (Mancinelli et al., 2010). Biliary apoptosis was evaluated by semiquantitative terminal deoxynucleotidyltransferase biotin-dUTP nick-end labeling (TUNEL) kit (Chemicon International, Inc., Temecula, Calif.) (Mancinelli et al., 2010). IBDM was determined as the area occupied by CK-19 positive-bile duct/total area×100 (Mancinelli et al., 2010). The morphological changes/damage in liver, spleen, kidney, heart, stomach, and small intestine were evaluated from AANAT Vivo-Morpholino- or mismatch-treated rats by H&E staining. The serum levels of the transaminases, glutamate pyruvate transaminases (SGPT) and glutamic oxaloacetic transaminase (SGOT), alkaline phosphatase (ALP) and total bilirubin were evaluated using a Dimension RxL Max Integrated Chemistry system (Dade Behring Inc., Deerfield Ill.), Chemistry Department, Scott & White.

[5] = tested on: SR, CFTR, Cl−/HCO3− AE2, VEGF-A/C; assay: Expression of PCNA, SR, CFTR, Cl−/HCO3− AE2, VEGF-A/C in liver sections, liver tissue and cholangiocytes of Morpholino-treated rats; type: in vivo, rat; conditions: normal rats, 1 week
Method: as §2
By real-time PCR (Francis et al., 2008), the expression of PCNA, SR, CFTR, Cl^−/HCO3^− AE2, VEGF-A/C was evaluated in total RNA from: (i) cholangiocytes from normal rats, and BDL rats treated with melatonin; and (ii) liver tissue and cholangiocytes from rats treated with mismatch or AANAT Vivo-Morpholino for 1 week. A ΔΔCT analysis was obtained using normal cholangiocytes or normal total liver as control samples (Francis et al., 2008). The primers for rat PCNA, SR, CFTR, Cl^−/HCO3^− AE2, VEGF-A/C (SABiosciences) were designed according to the NCBI GenBank Accession numbers: NM_022381 (PCNA); NM_031115 (SR); NM_017048 (Cl^−/HCO3^− AE2); XM_001059206 (CFTR); NM_031836 (VEGF-A); and NM_053653 (VEGF-C). The percentage of cholangiocytes positive for SR, CFTR, Cl^−/HCO3^− AE2 and VEGF-A/C was evaluated in liver sections: when 0%-5% of bile ducts were positive a negative score was assigned; a +/−score was assigned when 6%-10% of ducts were positive; a +score was assigned when 11%-30% of bile ducts were positive (Glaser et al., 2009).

[6] = molecular target: T1, AANAT (Rattus norvegicus, UniProt Q64666); assay: Melatonin levels in serum and cholangiocyte supernatant (ELISA) of Morpholino-treated rats; type: in vivo; conditions: normal rats
T1 construct: the expression of AANAT in liver sections and cholangiocytes from the selected groups of animals; from tissue; host or cells: Male Fischer 344 rats: liver sections, total liver, isolated cholangiocytes, pineal gland, small intestine, serum
Method: In separate experiments, normal rats treated with Vivo-Morpholino sequences of AANAT (5'-[…] NO:1), to reduce the biliary expression of AANAT) or Morpholino mismatched (5'-[…] NO:2)) (Gene Tools LCC) (1 mg/Kg BW/day) for 1 week via an implanted portal vein catheter. Serum, liver tissue, cholangiocytes, kidney, spleen, small intestine, stomach and heart were collected. Since our goal was to knock-down AANAT expression in the liver without inhibiting AANAT expression in other organs, we used a lower dose (1 mg/Kg/day) of Vivo-Morpholino than that described in the original study (3.0 mg/kg/day (Arora et al., 2002). This approach minimizes the amount of Vivo-Morpholino that circulates outside of the liver after slow infusion into the portal vein. See below for the surgical procedure for the implantation of the portal vein catheter by which AANAT Vivo-Morpholino or Morpholino mismatched was administered. Melatonin levels in serum and medium of primary cultures of isolated cholangiocytes were determined by ELISA kits (Genway, San Diego, Calif.). Supernatants were obtained from cholangiocytes (1×10^7 cells/ml) that were incubated for 6 hours at 37° C. (Glaser et al., 2008).

[7] = tested on: cholangiocytes; assay: Biliary proliferation (PCNA, IBDM) and apoptosis (TUNEL) in Morpholino-treated rats; type: in vivo, rat; conditions: normal rats, 1 mg/Kg BW/day for 1 week via portal vein catheter
Method: as §2, §3

T1 sequence (Q64666 whole entry): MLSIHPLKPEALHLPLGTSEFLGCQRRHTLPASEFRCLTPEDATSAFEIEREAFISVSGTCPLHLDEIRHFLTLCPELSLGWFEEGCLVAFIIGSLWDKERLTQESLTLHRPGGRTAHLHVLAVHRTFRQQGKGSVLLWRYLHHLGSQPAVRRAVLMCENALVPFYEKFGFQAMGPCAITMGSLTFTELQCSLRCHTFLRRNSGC

| Compound | Prevention of the melatonin-induced decrease in cAMP levels [1] | Selectivity for the MT2 vs. the MT1 subtype [2] | Prevention of the melatonin-induced decreases in PCNA expression and PKA, ERK2 phosphorylation [3] | ALP [4] | SGOT [4] | SGPT [4] | Total bilirubin [4] | Immunoreactivity of cholangiocytes to Cl−HCO3− AE2 [5] | Immunoreactivity of cholangiocytes to SR [5] | Immunoreactivity of cholangiocytes to VEGF-A [5] | Melatonin supernatant ([6]; cholangiocyte supernatant, 6 hours at 37° C., 1 mg/Kg BW/day for 1 week) | Melatonin serum ([6]; 1 mg/Kg BW/day for 1 week via portal vein catheter) | % IBDM [7] | % PCNA-positive cholangiocytes [7] | % apoptotic cholangiocytes [7] |
| --- | --- | --- | --- | --- | --- | --- | --- | --- | --- | --- | --- | --- | --- | --- | --- |
| CCC(=O)NC1Cc2ccccc2C(c2ccccc2)C1 (stereo not shown) [4-P-PDOT, 4-Phenyl-2-propionamidotetralin] | not | > 300 fold | – | – | – | – | – | – | – | – | – | – | – | – | – |
| CC(=O)NCCc1c(Cc2ccccc2)[nH]c2ccccc12 [luzindole] | prevented | – | prevented | – | – | – | – | – | – | – | – | – | – | – | – |
| mismatch Morpholino: Morpholino mismatched 5′-GTTCCCGACCTTTGCAACTCGTCCC (SEQ ID NO:2), control for AANAT Vivo-Morpholino (all phosphorodiamidate morpholino (PMO); further chemistry not fully specified) | – | – | – | 230.7 ± 9 Units/L | 120.5 ± 10.5 Units/L | 67.75 ± 4.6 Units/L | <0.1 mg/L | +/− (a +/−score was assigned when 6%-10% of ducts were positive) | +/− (a +/−score was assigned when 6%-10% of ducts were positive) | +/− (a +/−score was assigned when 6%-10% of ducts were positive) | 5.8 ± 0.6 pg/mL | 46.4 ± 10.1 pg/mL | 0.30 ± 0.04% | 8.00 ± 0.7% | <5% |
